Data from patent US8829024B2, “Combination steroid and glucocorticoid receptor antagonist therapy” (Corcept Therapeutics, Inc., priority 2011, dated 2014).

Key:
[1] = test system: GR induced transactivation (tyrosine amino transferase expression); assay: Glucocorticosteroid transactivation assay (tyrosine amino transferase expression in primary hepatocytes); type: cell-based; details: human liver hepatocytes; for inhibition of dexamethasone induced expression of tyrosine amino transferase (antagonism of GR induced transactivation): in presence of 50 nM dexamethasone, FIG. 2b
Source text: GR modulators of the present invention that inhibit GR induced transactivation can be identified by measuring the amount of tyrosine amino transferase expressed in the presence of the GR induced transactivation in a cell model (human liver hepatocytes).
In this example, dexamethasone induces the expression of tyrosine amino transferase by transactivation. Typically, glucocorticosteroids, such as the synthetic dexamethasone, bind the ligand-binding domain of the glucocorticoid receptor (GR) to promote nuclear translocation. In the nucleus, the DNA binding domain directs dimerization on imperfect DNA palindromes known as simple glucocorticoid response elements (GREs) to transcriptionally activate genes including tyrosine amino transferase (TAT).
Primary hepatocytes were distributed in 96-well collagen coated plates and equilibrated in media (without hydrocortisone) for 6 hours. Compounds were tested at 6 concentrations (semi-log dilutions) and prepared in 0.2% DMSO in the presence of 50 nM dexamethasone or media. Hepatocytes in the presence of compound were incubated for 24 hours, washed in PBS and lysed for 30 minutes (30 μl lysis volume). The TAT enzyme assay was initiated by the addition of 170 μl TAT assay buffer (substrate) for 1 hour. The reaction was terminated by the addition of 30 μl 10N KOH and the 96-well plates incubated for a further 30 min […] to allow formation of the aromatic aldehyde product, p-hydroxybenzaldehyde. Absorbance was read at 340 nm on a spectrophotometer.
Reagents: TAT assay buffer: 0.2 M KH2PO4 pH7.4 containing 5.4 mM L-tyrosine, 10.8 mM α-ketoglutaric acid and 0.06 mM Pyridoxal-5-phosphate monohydrate.
Dexamethasone was used to increase the expression of tyrosine amino transferase in human liver hepatocytes.

[2] = test system: GR induced transrepression (LPS activated TNFα release); assay: Glucocorticosteroid transrepression assay (LPS activated TNFα release in peripheral blood mononuclear cells); type: cell-based; details: human PBMC, 10 ng/ml LPS; for blockade of dexamethasone induced repression of LPS activated TNFα release (antagonism of transrepression): in presence of 50 nM dexamethasone, FIG. 1b
Method: Using a cell-based model (human peripheral blood mononuclear cells), dexamethasone was administered to the cells and the release of TNFα was measured. After addition of the GR modulator of the present invention, the release of TNFα was again measured and compared to the amount released in the absence of the GR modulator.
Human peripheral blood mononuclear cells were isolated and distributed in 96-well plates at a density of 2×10^5 cells/well in medium. Compounds were tested at 7 concentrations (semi-log dilutions) and prepared at 5× final assay concentration in 1.5% DMSO. Following a preincubation of 30 minutes with compounds the plates are then incubated in presence of 50 nM dexamethasone or media for 30 minutes. TNFα release was activated by overnight incubation with 10 ng/ml LPS. Human TNFα was measured using chemiluminescence detected on the SECTOR® Imager 6000 (Mesoscale). Dexamethasone was used to inhibit LPS activated TNFα release via the glucocorticoid receptor. […] In some cases, CORT-108297 was added in the absence of dexamethasone to determine if CORT-108297 inhibited LPS activated TNFα release.

| SMILES | expression of tyrosine amino transferase (increase), compound alone ([1]; all concentrations assayed, no dexamethasone, FIG. 2a) | inhibition of dexamethasone induced expression of tyrosine amino transferase (antagonism of GR induced transactivation) [1] | inhibition of LPS activated TNFα release, compound alone (transrepression agonism), in words ([2]; FIG. 1a) | maximal inhibition of LPS activated TNFα release, compound alone ([2]; at micromolar concentrations, no dexamethasone, FIG. 1a) | blockade of dexamethasone induced repression of LPS activated TNFα release (antagonism of transrepression) [2] | concentration giving maximal increase in TAT expression (transactivation) ([1]; compound alone, FIG. 2a) |
| --- | --- | --- | --- | --- | --- | --- |
| CCOC[C@]12Cc3cnn(-c4ccc(F)cc4)c3C=C1CCN(S(=O)(=O)c1ccc(C(F)(F)F)cc1)C2 [CORT-108297] | ≤ 0% | full potent antagonist of GR induced transactivation | weak partial agonist of GR induced transrepression | 48% | only shows partial blockade at higher concentrations |  |
| C[C@@H]1C[C@H]2[C@@H]3CCC4=CC(=O)C=C[C@]4(C)[C@@]3(F)[C@@H](O)C[C@]2(C)[C@@]1(O)C(=O)CO [dexamethasone, reference compound] |  |  |  |  |  | about 100 nM |
| CC#C[C@]1(O)CC[C@H]2[C@@H]3CCC4=CC(=O)CCC4=C3[C@@H](c3ccc(N(C)C)cc3)C[C@@]21C [mifepristone, reference compound] |  | inhibit the increased expression of tyrosine amino transferase |  |  | completely blocks this effect |  |
